ChEMBL document CHEMBL1201862, “PubChem BioAssay data set” (2004)
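How tested: cells in 96-well plates exposed to compound for 48 hours at five concentrations. GI50 marks 50% less growth.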 Active and inactive are the calls of the source. No stated cut-off is given here; in the data, active = GI50 up to about 1.1 µM and inactive = higher.

How the values were obtained:
Assay in all cases: NCI tumour cell line growth inhibition, 48 h
T47D = test system: T47D
OVCAR-4 = test system: OVCAR-4
SNB-75 = test system: SNB-75
SF-268 = test system: SF-268
UACC-62 = test system: UACC-62
SF-539 = test system: SF-539
SK-MEL-2 = test system: SK-MEL-2
K562 = test system: K562
HOP-62 = test system: HOP-62
M14 = test system: M14
HCT-15 = test system: HCT-15
NCI-H226 = test system: NCI-H226
RXF 393 = test system: RXF 393
HCC 2998 = test system: HCC 2998
SN12C = test system: SN12C
UACC-257 = test system: UACC-257
MDA-MB-231 = test system: MDA-MB-231
SK-MEL-5 = test system: SK-MEL-5
U-251 = test system: U-251
SNB-19 = test system: SNB-19
HT-29 = test system: HT-29
HCT-116 = test system: HCT-116
Hs-578T = test system: Hs-578T
RPMI-8226 = test system: RPMI-8226
A549 = test system: A549
HL-60 = test system: HL-60
TK-10 = test system: TK-10
NCI-H522 = test system: NCI-H522
SK-MEL-28 = test system: SK-MEL-28
MOLT-4 = test system: MOLT-4
EKVX = test system: EKVX
NCI/ADR-RES = test system: NCI/ADR-RES
DU-145 = test system: DU-145
CCRF-CEM = test system: CCRF-CEM
OVCAR-8 = test system: OVCAR-8
UO-31 = test system: UO-31
SR = test system: SR
COLO 205 = test system: COLO 205
IGROV-1 = test system: IGROV-1
786-0 = test system: 786-0
OVCAR-3 = test system: OVCAR-3
SW-620 = test system: SW-620
MCF7 = test system: MCF7
LOX IMVI = test system: LOX IMVI
SK-OV-3 = test system: SK-OV-3
CAKI-1 = test system: CAKI-1
MDA-MB-435 = test system: MDA-MB-435
SF-295 = test system: SF-295
NCI-H23 = test system: NCI-H23
KM12 = test system: KM12
Malme-3M = test system: Malme-3M
MDA-N = test system: MDA-N
NCI-H460 = test system: NCI-H460
BT-549 = test system: BT-549
PC-3 = test system: PC-3
OVCAR-5 = test system: OVCAR-5
ACHN = test system: ACHN
HOP-92 = test system: HOP-92

N#Cc1sc2c(c1OC(=O)c1ccco1)c(=O)n(-c1ccccc1)c(=S)n2-c1ccccc1
GI50 (T47D): 21.1 µM (inactive) | GI50 (OVCAR-4): 23.6 µM (inactive) | GI50 (SNB-75): 18.8 µM (inactive) | GI50 (SF-268): 32.4 µM (inactive) | GI50 (UACC-62): 15.3 µM (inactive) | GI50 (SF-539): 26.1 µM (inactive) | GI50 (SK-MEL-2): 28.8 µM (inactive) | GI50 (K562): 15 µM (inactive) | GI50 (HOP-62): 25.9 µM (inactive) | GI50 (M14): 25.5 µM (inactive) | GI50 (HCT-15): 20 µM | GI50 (NCI-H226): 34.3 µM (inactive) | GI50 (RXF 393): 23.3 µM (inactive) | GI50 (HCC 2998): 55.7 µM (inactive) | GI50 (SN12C): 27.8 µM (inactive) | GI50 (UACC-257): 62.2 µM (inactive) | GI50 (MDA-MB-231): 26.5 µM (inactive) | GI50 (SK-MEL-5): 17.6 µM (inactive) | GI50 (U-251): 25.3 µM (inactive) | GI50 (SNB-19): 36.4 µM (inactive) | GI50 (HT-29): 32.9 µM (inactive) | GI50 (HCT-116): 19.2 µM (inactive) | GI50 (Hs-578T): 57.4 µM (inactive) | GI50 (RPMI-8226): 22.4 µM (inactive) | GI50 (A549): 35.9 µM (inactive) | GI50 (HL-60): 67.5 µM (inactive) | GI50 (TK-10): 49.8 µM (inactive) | GI50 (NCI-H522): 27.4 µM (inactive) | GI50 (SK-MEL-28): 35 µM (inactive) | GI50 (MOLT-4): 13.8 µM (inactive) | GI50 (EKVX): 52.6 µM (inactive) | GI50 (NCI/ADR-RES): 26.6 µM (inactive) | GI50 (DU-145): 48.5 µM (inactive) | GI50 (CCRF-CEM): > 10 µM (inactive) | GI50 (OVCAR-8): 29.9 µM (inactive) | GI50 (UO-31): 16 µM (inactive) | GI50 (SR): > 10 µM (inactive) | GI50 (COLO 205): 22.8 µM (inactive) | GI50 (IGROV-1): > 10 µM (inactive) | GI50 (786-0): 31.1 µM (inactive) | GI50 (OVCAR-3): 24.8 µM (inactive) | GI50 (SW-620): 17.7 µM (inactive) | GI50 (MCF7): 31.2 µM (inactive) | GI50 (LOX IMVI): 16.2 µM (inactive) | GI50 (SK-OV-3): 27.7 µM (inactive) | GI50 (CAKI-1): 39.7 µM (inactive) | GI50 (MDA-MB-435): 27.7 µM (inactive) | GI50 (SF-295): 26.7 µM (inactive) | GI50 (NCI-H23): 34.8 µM (inactive) | GI50 (KM12): 30.3 µM (inactive) | GI50 (Malme-3M): 22.2 µM (inactive) | GI50 (MDA-N): 20.8 µM (inactive) | GI50 (NCI-H460): 32 µM (inactive) | GI50 (BT-549): 37.6 µM (inactive) | GI50 (PC-3): 18.5 µM (inactive)

C=C(C)CNC(=S)N(N)c1ccc(OC)cc1
GI50 (T47D): > 100 µM (inactive) | GI50 (OVCAR-4): > 100 µM (inactive) | GI50 (SNB-75): 99.8 µM (inactive) | GI50 (SF-268): 55.3 µM (inactive) | GI50 (UACC-62): 24.2 µM (inactive) | GI50 (SF-539): > 100 µM (inactive) | GI50 (K562): 39.6 µM (inactive) | GI50 (HOP-62): > 100 µM (inactive) | GI50 (M14): > 100 µM (inactive) | GI50 (HCT-15): 21.8 µM | GI50 (NCI-H226): > 100 µM (inactive) | GI50 (RXF 393): > 100 µM (inactive) | GI50 (HCC 2998): > 100 µM (inactive) | GI50 (SN12C): 66.8 µM (inactive) | GI50 (UACC-257): > 100 µM (inactive) | GI50 (MDA-MB-231): > 100 µM (inactive) | GI50 (SK-MEL-5): > 100 µM (inactive) | GI50 (U-251): > 100 µM (inactive) | GI50 (SNB-19): > 100 µM (inactive) | GI50 (HT-29): 74.8 µM (inactive) | GI50 (HCT-116): > 100 µM (inactive) | GI50 (Hs-578T): > 100 µM (inactive) | GI50 (RPMI-8226): > 100 µM (inactive) | GI50 (A549): > 100 µM (inactive) | GI50 (HL-60): > 100 µM (inactive) | GI50 (TK-10): > 100 µM (inactive) | GI50 (NCI-H522): 56.1 µM (inactive) | GI50 (SK-MEL-28): > 100 µM (inactive) | GI50 (MOLT-4): 96.6 µM (inactive) | GI50 (EKVX): 82.2 µM (inactive) | GI50 (NCI/ADR-RES): > 100 µM (inactive) | GI50 (DU-145): > 100 µM (inactive) | GI50 (CCRF-CEM): 94 µM (inactive) | GI50 (OVCAR-8): > 100 µM (inactive) | GI50 (OVCAR-5): > 100 µM (inactive) | GI50 (UO-31): 52.6 µM (inactive) | GI50 (SR): > 100 µM (inactive) | GI50 (COLO 205): > 100 µM (inactive) | GI50 (IGROV-1): 58.6 µM (inactive) | GI50 (786-0): > 100 µM (inactive) | GI50 (OVCAR-3): > 100 µM (inactive) | GI50 (ACHN): 39.2 µM (inactive) | GI50 (SW-620): > 100 µM (inactive) | GI50 (HOP-92): > 100 µM (inactive) | GI50 (MCF7): > 100 µM (inactive) | GI50 (LOX IMVI): > 100 µM (inactive) | GI50 (SK-OV-3): > 100 µM (inactive) | GI50 (MDA-MB-435): 54.8 µM (inactive) | GI50 (SF-295): > 100 µM (inactive) | GI50 (NCI-H23): > 100 µM (inactive) | GI50 (KM12): 39.2 µM (inactive) | GI50 (Malme-3M): > 100 µM (inactive) | GI50 (MDA-N): 99.3 µM (inactive) | GI50 (NCI-H460): > 100 µM (inactive) | GI50 (BT-549): > 100 µM (inactive) | GI50 (PC-3): > 100 µM (inactive)
